Source: patent publication US20170226059A1, “APOE4-TARGETED THERAPUTICS THAT INCREASE SIRT1” (The Regents of the University of California, priority 2014, published 2017)
Like-named read-outs stand apart in the source and are kept apart here.

Legend:
SirT1 = experiment: Primary AlphaLISA screening assay: SirT1 levels in N2a cells stably transfected with ApoE4; type: cell-based, mouse; settings: for Primary Assay (SrT1 increase): primary screening assay, ApoE4 cells
Method: We have developed a primary screening assay that is HTS formatable; the assay would be done on N2a cells (mouse neuroblastoma cells) that have been stably transfected with ApoE3 and ApoE4. The cells are treated with drugs and the SirT1 levels are measured using the AlphaLISA assay that we have developed, e.g., as shown in FIG. 11. The illustrated AlphaLISA uses an antibody (Ab, E104, Abcam) that binds the C-terminus of SirT1 and is on the acceptor bead. The N-terminal Ab (D1D7, Abcam) is biotinylated and binds to the donor bead. For the primary assay the Neuro-2a (N2a) cells stably expressing similar levels of hApoE3 or hApoE4 are used. The primary assay can be done in triplicate. The N2a cells have reasonably good endogenous levels of APP thus avoiding the necessity of APP transfection. In general, for the assays N2a cells stably transfected with hApoE3 (E3) or hApoE4 (E4) are plated, e.g., at […] in 384-well plates in […] of growth medium and allowed to attached for 3 h. The E4 cells are treated with compounds overnight, E3 cells are controls. The following day, growth medium is removed and cells are lysed with AlphaLysis buffer complemented with protease and phosphatase inhibitors.
Then, the AlphaLISA assay is run and molecules that can increase or reverse the SirT1 levels in ApoE4 cells are identified. A preliminary estimate, based on the initial screening which yielded two reproducible “hits” from a set of 1000 compounds, which is a 0.2% hit-rate. […] Our initial screening was done on a small library of about 1000 compounds. The assay is translatable to a HTS format.

p-APP = experiment: APP phosphorylation (p-APP) in cells transfected with ApoE4; type: cell-based
Method: (§1) sAPPα or sAPPβ secreted into the cellular media are determined with sAPPα or sAPPβ AlphaLISA immunoassay kits (PerkinElmer) according to the manufacturer's protocol with some modifications. The standards, blanks, and media are diluted with the buffer provided in the kit and added to the plate. During the first incubation step, the analyte is captured either by an antibody recognizing the α-secretase cleavage site at sAPPα C-terminus (clone 2B3) or the sAPPβ C-terminus, and then by a second biotin-labeled antibody specific to the N-terminal common domain of sAPP. In the second incubation step, the biotinylated anti-analyte antibody is bound to the streptavidin-coated donor beads. At the end of this reaction, the plates are read on an EnSpire Alpha 2390 multilabel plate reader equipped with the AlphaScreen module. The Aβ1-42 or 1-40 are determined from media and/or cells using Life Science's sandwich ELISA kit. The levels of Aβ are quantified from a standard curve and normalized to total cellular protein (Spilman et al. (2014) Brain Res. 1551: 25-44; Theendakara et al. (2013) Proc. Natl. Acad. Sci. USA, 10(45): 18303-18308), Tau and p-tau are determined from cell extracts by a solid phase double antibody sandwich ELISA technology designed for quantitative determination of phospho-tau (Antibodies-Online). APP and p-APP are determined by the DuoSet IC ELISA (R&D Systems) to measure phosphorylated APP in cell lysates. An immobilized capture antibody specific for APP binds both phosphorylated and unphosphorylated APP. After unbound material is washed away, a biotinylated detection antibody is used to detect either APP or phosphor-APP utilizing a standard HRP format. Using these assay procedures we notice a significant increase in p-tau and p-APP levels in ApoE4-transfected cells. It can be determined whether the primary “hits” reverse the ApoE4-mediated APP-Thr phosphorylation and tau-phosphorylation.

sAPPα = sAPPα levels in the presence of ApoE4 (AlphaLISA); type: cell-based; settings: in the presence of ApoE4 (ApoE4-transfected cells)
Method: as §1

p-tau = experiment: tau phosphorylation (p-tau) in cells transfected with ApoE4; type: cell-based
Method: sAPPα or sAPPβ secreted into the cellular media are determined with sAPPα or sAPPβ AlphaLISA immunoassay kits (PerkinElmer) according to the manufacturer's protocol with some modifications. The standards, blanks, and media are diluted with the buffer provided in the kit and added to the plate. During the first incubation step, the analyte is captured either by an antibody recognizing the α-secretase cleavage site at sAPPα C-terminus (clone 2B3) or the sAPPβ C-terminus, and then by a second biotin-labeled antibody specific to the N-terminal common domain of sAPP. In the second incubation step, the biotinylated anti-analyte antibody is bound to the streptavidin-coated donor beads. At the end of this reaction, the plates are read on an EnSpire Alpha 2390 multilabel plate reader equipped with the AlphaScreen module. The Aβ1-42 or 1-40 are determined from media and/or cells using Life Science's sandwich ELISA kit. The levels of Aβ are quantified from a standard curve and normalized to total cellular protein (Spilman et al. (2014) Brain Res. 1551: 25-44; Theendakara et al. (2013) Proc. Natl. Acad. Sci. USA, 10(45): 18303-18308), Tau and p-tau are determined from cell extracts by a solid phase double antibody sandwich ELISA technology designed for quantitative determination of phospho-tau (Antibodies-Online). […]

obese mice = settings: cited from earlier work

Compound	Primary Assay (SrT1 increase) (SirT1)	further results
1-(3,4-difluorophenyl)-2-methylpropan-2-yl 2-aminoethanoate [Compound 21]	II (activity II 10-30%)	
1-(4-chlorophenyl)-2-methylpropan-2-yl pyrrolidine-2-carboxylate [Compound 20]	I (activity I < 10%)	
2-amino-N-(1-(4-chlorophenyl)-2-methylpropan-2-yl)propanamide [Compound 15]	III (activity III > 30 SrT1 increase)	
Cc1c[nH]c(-c2cnc(NCCNc3ccc(C#N)cn3)nc2-c2ccc(Cl)cc2Cl)n1 [CHIR99021]		APP phosphorylation (p-APP) (p-APP): reversed; APP phosphorylation (p-APP) (p-APP; listed as CHIR): reduces APP phosphorylation; sAPPα levels (sAPPα): reversed the reduction in sAPPα; sAPPα levels (sAPPα; listed as CHIR): restores sAPPα levels
CC(N)C(=O)OC(C)(C)Cc1ccccc1 (stereo not drawn) [Compound 1, 2-methyl-1-phenylpropan-2-yl 2-aminopropanoate]	II (activity II 10-30%)	
CC(C)(Cc1ccc(Cl)cc1)OC(=O)C(N)Cc1ccccc1 (stereo not drawn) [Compound 2, 1-(4-chlorophenyl)-2-methylpropan-2-yl 2-amino-3-phenylpropanoate]	I (activity I < 10%)	
CC(N)C(=O)OC(C)(C)Cc1ccc(F)c(F)c1 (stereo not drawn) [Compound 3, 1-(3,4-difluorophenyl)-2-methylpropan-2-yl 2-aminopropanoate]	III (activity III > 30 SrT1 increase)	
CC(N)C(=O)OC(C)(C)Cc1ccc(F)cc1 (stereo not drawn) [Compound 4, 1-(4-fluorophenyl)-2-methylpropan-2-yl 2-aminopropanoate]	II (activity II 10-30%)	
CC(C)CC(N)C(=O)OC(C)(C)Cc1ccc(Cl)cc1 (stereo not drawn) [Compound 5, 1-(4-chlorophenyl)-2-methylpropan-2-yl 2-amino-4-methylpentanoate]	I (activity I < 10%)	
Cc1ccc(CC(C)(C)OC(=O)C(C)N)cc1 (stereo not drawn) [Compound 6, 2-methyl-1-p-tolylpropan-2-yl 2-aminopropanoate]	II (activity II 10-30%)	
CC(C)(Cc1ccc(Cl)cc1)OC(=O)CN [Compound 7, 1-(4-chlorophenyl)-2-methylpropan-2-yl 2-aminoethanoate]	II (activity II 10-30%)	
CC(C)C(N)C(=O)OC(C)(C)Cc1ccc(Cl)cc1 (stereo not drawn) [Compound 8, 1-(4-chlorophenyl)-2-methylpropan-2-yl 2-amino-3-methylbutanoate]	II (activity II 10-30%)	
CC(N)C(=O)OC1(Cc2ccc(Cl)cc2)CCC1 (stereo not drawn) [Compound 9, 1-(4-chlorobenzyl)cyclobutyl 2-aminopropanoate]	I (activity I < 10%)	
CC(N)C(=O)OC1(Cc2ccc(Cl)cc2)CCCCC1 (stereo not drawn) [Compound 10, 1-(4-chlorobenzyl)cyclohexyl 2-aminopropanoate]	I (activity I < 10%)	
CCC(C)C(N)C(=O)OC(C)(C)Cc1ccc(Cl)cc1 (stereo not drawn) [Compound 11, 1-(4-chlorophenyl)-2-methylpropan-2-yl 2-amino-3-methylpentanoate]	II (activity II 10-30%)	
CC(N)C(=O)OC(C)(C)CCc1ccc(Cl)cc1 (stereo not drawn) [Compound 12, 4-(4-chlorophenyl)-2-methylbutan-2-yl 2-aminopropanoate]	II (activity II 10-30%)	
CC(C)(Cc1ccc(Cl)cc1)OC(=O)C(N)CCCCN (stereo not drawn) [Compound 13, 1-(4-chlorophenyl)-2-methylpropan-2-yl 2,6-diaminohexanoate]	II (activity II 10-30%)	
CC(N)C(=O)OC(C)(C)Cc1cc(F)cc(F)c1 (stereo not drawn) [Compound 14, 1-(3,5-difluorophenyl)-2-methylpropan-2-yl 2-aminopropanoate]	III (activity III > 30 SrT1 increase)	
CC(C)(Cc1ccc(Cl)cc1)OC(=O)C(N)CO (stereo not drawn) [Compound 16, 1-(4-chlorophenyl)-2-methylpropan-2-yl 2-amino-3-hydroxypropanoate]	II (activity II 10-30%)	
CC(C)(Cc1ccc(Cl)cc1)OC(=O)CCN [Compound 17, 1-(4-chlorophenyl)-2-methylpropan-2-yl 3-aminopropanoate]	I (activity I < 10%)	
C[C@H](N)CC(=O)OC(C)(C)Cc1ccc(Cl)cc1 [Compound 18, (S)-1-(4-chlorophenyl)-2-methylpropan-2-yl 3-aminobutanoate]	I (activity I < 10%)	
CC(C)(Cc1ccc(Cl)cc1)OC(=O)C1CCCCN1 (stereo not drawn) [Compound 19, 1-(4-chlorophenyl)-2-methylpropan-2-yl piperidine-2-carboxylate]	II (activity II 10-30%)	
CC(N)C(=O)NC(C)(C)Cc1ccc(F)c(F)c1 (stereo not drawn) [Compound 22, 2-amino-N-(1-(3,4-difluorophenyl)-2-methylpropan-2-yl)propanamide]	III (activity III > 30 SrT1 increase)	
CNC(C)C(=O)OC(C)(C)Cc1ccc(Cl)cc1 (stereo not drawn) [Compound 23, 1-(4-chlorophenyl)-2-methylpropan-2-yl 2-(methylamino)propanoate]	I (activity I < 10%)	
CC(C)(Cc1ccc(F)c(F)c1)NC(=O)C1CCCN1 (stereo not drawn) [Compound 24, N-(1-(3,4-difluorophenyl)-2-methylpropan-2-yl)pyrrolidine-2-carboxamide]	II (activity II 10-30%)	
Clc1cccc(Cl)c1N=C1NCCN1 [Compound A02, clonidine]		SirT1 levels (dose-response) (SirT1; N2A neuroblastoma cells stably transfected with ApoE4): flat
CC(C)CC(=O)Nc1[nH]nc2c1CN(C(=O)C1CCN(C)CC1)C2(C)C [PHA793887]		APP phosphorylation (p-APP) (p-APP): attenuated; p-tau (p-tau): attenuated
CNCCC(Oc1ccc(C(F)(F)F)cc1)c1ccccc1 (stereo not drawn) [Prozac]		effect on SirT1 levels in initial screen (SirT1; initial screen of about 1000 compounds): no affect on SirT1 levels
O=C(Nc1ccccc1-c1cn2c(CN3CCNCC3)csc2n1)c1cnc2ccccc2n1 [SRT1720]		extension of lifespan (obese mice): 44%
